Test system: 598228-144-R-J1-PDC complex spheroid viability
Test: Anticancer human tumor 598228-144-R-J1-PDC patient-derived serous endometrial adenocarcinoma cell line growth inhibition [GQUAD]
Details: for IC50: curve of first compound; for viability, T/C: stronger effect = lower value
Method in brief: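 Multi-cell-type spheroids of tumor cells with HUVEC and mesenchymal stem cells, treated with drug combinations. Concentrations descend in half-log steps from near clinical Cmax, or from 10 microM where Cmax is unknown; viability read-out.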

[1] = second compound 0.0316 µM, first compound 0.0316 µM
[2] = second compound 0.0316 µM, first compound 0.1 µM
[3] = second compound 0.0316 µM, first compound 0.316 µM
[4] = second compound 0.0316 µM, first compound 1 µM
[5] = second compound 0.0316 µM, first compound 3.16 µM
[6] = second compound 0.0316 µM, first compound 10 µM
[7] = second compound 0.1 µM, first compound 0.0316 µM
[8] = second compound 0.1 µM, first compound 0.1 µM
[9] = second compound 0.1 µM, first compound 0.316 µM
[10] = second compound 0.1 µM, first compound 1 µM
[11] = second compound 0.1 µM, first compound 3.16 µM
[12] = second compound 0.1 µM, first compound 10 µM
[13] = second compound 0.316 µM, first compound 0.0316 µM
[14] = second compound 0.316 µM, first compound 0.1 µM
[15] = second compound 0.316 µM, first compound 0.316 µM
[16] = second compound 0.316 µM, first compound 1 µM
[17] = second compound 0.316 µM, first compound 3.16 µM
[18] = second compound 0.316 µM, first compound 10 µM
[19] = second compound 1 µM, first compound 0.0316 µM
[20] = second compound 1 µM, first compound 0.1 µM
[21] = second compound 1 µM, first compound 0.316 µM
[22] = second compound 1 µM, first compound 1 µM
[23] = second compound 1 µM, first compound 3.16 µM
[24] = second compound 1 µM, first compound 10 µM
[25] = second compound 3.16 µM, first compound 0.0316 µM
[26] = second compound 3.16 µM, first compound 0.1 µM
[27] = second compound 3.16 µM, first compound 0.316 µM
[28] = second compound 3.16 µM, first compound 1 µM
[29] = second compound 3.16 µM, first compound 3.16 µM
[30] = second compound 3.16 µM, first compound 10 µM
[31] = second compound 10 µM, first compound 0.0316 µM
[32] = second compound 10 µM, first compound 0.1 µM
[33] = second compound 10 µM, first compound 0.316 µM
[34] = second compound 10 µM, first compound 1 µM
[35] = second compound 10 µM, first compound 3.16 µM
[36] = second compound 10 µM, first compound 10 µM
[37] = second compound 0.0316 µM, first compound 0.000999 µM
[38] = second compound 0.0316 µM, first compound 0.00316 µM
[39] = second compound 0.0316 µM, first compound 0.00999 µM
[40] = second compound 0.0316 µM, first compound 0.0999 µM
[41] = second compound 0.1 µM, first compound 0.000999 µM
[42] = second compound 0.1 µM, first compound 0.00316 µM
[43] = second compound 0.1 µM, first compound 0.00999 µM
[44] = second compound 0.1 µM, first compound 0.0999 µM
[45] = second compound 0.316 µM, first compound 0.000999 µM
[46] = second compound 0.316 µM, first compound 0.00316 µM
[47] = second compound 0.316 µM, first compound 0.00999 µM
[48] = second compound 0.316 µM, first compound 0.0999 µM
[49] = second compound 1 µM, first compound 0.000999 µM
[50] = second compound 1 µM, first compound 0.00316 µM
[51] = second compound 1 µM, first compound 0.00999 µM
[52] = second compound 1 µM, first compound 0.0999 µM
[53] = second compound 3.16 µM, first compound 0.000999 µM
[54] = second compound 3.16 µM, first compound 0.00316 µM
[55] = second compound 3.16 µM, first compound 0.00999 µM
[56] = second compound 3.16 µM, first compound 0.0999 µM
[57] = second compound 10 µM, first compound 0.000999 µM
[58] = second compound 10 µM, first compound 0.00316 µM
[59] = second compound 10 µM, first compound 0.00999 µM
[60] = second compound 10 µM, first compound 0.0999 µM
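Further: spheroids exposed to the agents for one week before reading.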
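Wherever viability, T/C is given: percent of vehicle DMSO control viability so 100% = untreated growth.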

C=CC(=O)N1CCN(c2nc(=O)n(-c3c(C)ccnc3C(C)C)c3nc(-c4c(O)cccc4F)c(F)cc23)C(C)C1 (stereo not drawn) + Cc1cnc(CNC(=O)c2c(=O)c3ccc(N4CCCN(C)CC4)nc3n3c2sc2ccccc23)cn1
IC50 (second compound 0.0316 µM): > 10000 nM
IC50 (second compound 0.1 µM): > 10000 nM
IC50 (second compound 0.316 µM): > 10000 nM
IC50 (second compound 1 µM): > 10000 nM
IC50 (second compound 3.16 µM): > 10000 nM
IC50 (second compound 10 µM): < 31.6 nM
viability, T/C [1]: 92.7%
viability, T/C [2]: 97.3%
viability, T/C [3]: 91%
viability, T/C [4]: 83.2%
viability, T/C [5]: 102%
viability, T/C [6]: 82.9%
viability, T/C [7]: 80.8%
viability, T/C [8]: 66.3%
viability, T/C [9]: 77.6%
viability, T/C [10]: 81.7%
viability, T/C [11]: 86.4%
viability, T/C [12]: 80.4%
viability, T/C [13]: 89.3%
viability, T/C [14]: 55.1%
viability, T/C [15]: 62.6%
viability, T/C [16]: 73.3%
viability, T/C [17]: 80.6%
viability, T/C [18]: 64.1%
viability, T/C [19]: 65.1%
viability, T/C [20]: 74.9%
viability, T/C [21]: 58.2%
viability, T/C [22]: 83%
viability, T/C [23]: 77.6%
viability, T/C [24]: 79.8%
viability, T/C [25]: 69%
viability, T/C [26]: 60.4%
viability, T/C [27]: 60.1%
viability, T/C [28]: 55.4%
viability, T/C [29]: 63.3%
viability, T/C [30]: 54%
viability, T/C [31]: 48.1%
viability, T/C [32]: 36%
viability, T/C [33]: 60.9%
viability, T/C [34]: 50.9%
viability, T/C [35]: 51.5%
viability, T/C [36]: 5.43%

CC[C@@]1(O)C(=O)OCc2c1cc1n(c2=O)Cc2cc3c(CN(C)C)c(O)ccc3nc2-1 + Cc1cnc(CNC(=O)c2c(=O)c3ccc(N4CCCN(C)CC4)nc3n3c2sc2ccccc23)cn1
IC50 (second compound 0.0316 µM): > 316 nM
IC50 (second compound 0.1 µM): > 316 nM
IC50 (second compound 0.316 µM): > 316 nM
IC50 (second compound 1 µM): > 316 nM
IC50 (second compound 3.16 µM): > 316 nM
IC50 (second compound 10 µM): < 0.999 nM
viability, T/C [37]: 83.8%
viability, T/C [38]: 107%
viability, T/C [39]: 93.2%
viability, T/C [1]: 81.6%
viability, T/C [40]: 54.8%
viability, T/C [3]: 53.9%
viability, T/C [41]: 85.1%
viability, T/C [42]: 80.2%
viability, T/C [43]: 65.5%
viability, T/C [7]: 68.7%
viability, T/C [44]: 64.2%
viability, T/C [9]: 63.6%
viability, T/C [45]: 69.2%
viability, T/C [46]: 67.9%
viability, T/C [47]: 68.8%
viability, T/C [13]: 78.2%
viability, T/C [48]: 73.1%
viability, T/C [15]: 76.6%
viability, T/C [49]: 71%
viability, T/C [50]: 72.9%
viability, T/C [51]: 71.1%
viability, T/C [19]: 68.3%
viability, T/C [52]: 75.7%
viability, T/C [21]: 58%
viability, T/C [53]: 67.4%
viability, T/C [54]: 58.6%
viability, T/C [55]: 58.7%
viability, T/C [25]: 52%
viability, T/C [56]: 65.6%
viability, T/C [27]: 59.4%
viability, T/C [57]: 42.5%
viability, T/C [58]: 41.2%
viability, T/C [59]: 47.7%
viability, T/C [31]: 52.3%
viability, T/C [60]: 36%
viability, T/C [33]: 40.9%

CCc1c2c(nc3ccc(O)cc13)-c1cc3c(c(=O)n1C2)COC(=O)[C@]3(O)CC + Cc1cnc(CNC(=O)c2c(=O)c3ccc(N4CCCN(C)CC4)nc3n3c2sc2ccccc23)cn1
IC50 (second compound 0.0316 µM): 18 nM
IC50 (second compound 0.1 µM): 14.9 nM
IC50 (second compound 0.316 µM): 16.4 nM
IC50 (second compound 1 µM): 22.2 nM
IC50 (second compound 3.16 µM): 12.8 nM
IC50 (second compound 10 µM): < 0.999 nM
viability, T/C [37]: 62.5%
viability, T/C [38]: 68%
viability, T/C [39]: 55.6%
viability, T/C [1]: 42.6%
viability, T/C [40]: 27.3%
viability, T/C [3]: 15.3%
viability, T/C [41]: 58.7%
viability, T/C [42]: 56.1%
viability, T/C [43]: 60.4%
viability, T/C [7]: 34.1%
viability, T/C [44]: 22.6%
viability, T/C [9]: 15%
viability, T/C [45]: 69.3%
viability, T/C [46]: 76.8%
viability, T/C [47]: 45.4%
viability, T/C [13]: 47.3%
viability, T/C [48]: 21.5%
viability, T/C [15]: 2.76%
viability, T/C [49]: 68.5%
viability, T/C [50]: 63.5%
viability, T/C [51]: 64.2%
viability, T/C [19]: 43.3%
viability, T/C [52]: 19.6%
viability, T/C [21]: 0.43%
viability, T/C [53]: 70.3%
viability, T/C [54]: 63%
viability, T/C [55]: 55.8%
viability, T/C [25]: 27.9%
viability, T/C [56]: 0.43%
viability, T/C [27]: 0.31%
viability, T/C [57]: 54%
viability, T/C [58]: 39.5%
viability, T/C [59]: 44%
viability, T/C [31]: 1.02%
viability, T/C [60]: 0.4%
viability, T/C [33]: 0.35%

O=C(c1cc(Cc2n[nH]c(=O)c3ccccc23)ccc1F)N1CCN(C(=O)C2CC2)CC1 + Cc1cnc(CNC(=O)c2c(=O)c3ccc(N4CCCN(C)CC4)nc3n3c2sc2ccccc23)cn1
IC50 (second compound 0.0316 µM): > 10000 nM
IC50 (second compound 0.1 µM): > 10000 nM
IC50 (second compound 0.316 µM): 9020 nM
IC50 (second compound 1 µM): > 10000 nM
IC50 (second compound 3.16 µM): > 10000 nM
IC50 (second compound 10 µM): < 31.6 nM
viability, T/C [1]: 82.4%
viability, T/C [2]: 89.4%
viability, T/C [3]: 73%
viability, T/C [4]: 68.7%
viability, T/C [5]: 84.4%
viability, T/C [6]: 63.2%
viability, T/C [7]: 70.9%
viability, T/C [8]: 75.6%
viability, T/C [9]: 63.8%
viability, T/C [10]: 63.1%
viability, T/C [11]: 63%
viability, T/C [12]: 67.8%
viability, T/C [13]: 57%
viability, T/C [14]: 60.9%
viability, T/C [15]: 68.1%
viability, T/C [16]: 65.2%
viability, T/C [17]: 58.8%
viability, T/C [18]: 49.1%
viability, T/C [19]: 62.2%
viability, T/C [20]: 51.3%
viability, T/C [21]: 55.7%
viability, T/C [22]: 54.1%
viability, T/C [23]: 72.3%
viability, T/C [24]: 56%
viability, T/C [25]: 58.1%
viability, T/C [26]: 57.8%
viability, T/C [27]: 67.9%
viability, T/C [28]: 53.2%
viability, T/C [29]: 57.3%
viability, T/C [30]: 48.9%
viability, T/C [31]: 41.5%
viability, T/C [32]: 49.6%
viability, T/C [33]: 40.6%
viability, T/C [34]: 56.8%
viability, T/C [35]: 73.1%
viability, T/C [36]: 47.3%
